The values that follow come from ChEMBL document CHEMBL1147199, “Exploration of the correlation between the structure, hemolytic activity, and cytotoxicity of steroid saponins” (Bioorg Med Chem, 2007).

Some results are limits rather than exact numbers.

This data set can be described thus: Cytotoxicity against human erythrocytes assessed as hemolytic activity after 60 mins. Format: cell-based, Erythrocyte. The settings on record: read-out: HD50.
`CCCCCCCCCC(=O)O[C@H]1C[C@@H]2[C@H](CC[C@]3(C)[C@@H]4[C@H](C[C@@H]23)O[C@]2(CC[C@@H](C)CO2)[C@H]4C)[C@@]2(C)C[C@@H](O)[C@H](O[C@@H]3O[C@H](CO)[C@@H](O[C@H]4O[C@H](C)[C@@H](O)[C@H](O)[C@@H]4O)[C@H](O)[C@H]3O[C@H]3O[C@H](C)[C@@H](O)[C@H](O)[C@@H]3O)C[C@H]12`: the HC50 at 1 h amounted to 6.7 µM.

Consider `C[C@@H]1CC[C@@]2(OC1)O[C@H]1C[C@H]3[C@@H]4CC=C5C[C@@H](O[C@@H]6O[C@H](CO)[C@@H](O)[C@H](O[C@@H]7O[C@@H](C)[C@H](O)[C@@H](O)[C@H]7O)[C@H]6O[C@H]6O[C@H](C)[C@@H](O)[C@H](O)[C@@H]6O)CC[C@]5(C)[C@H]4CC[C@]3(C)[C@H]1[C@@H]2C` [TACCAOSIDE], for which the HC50 at 1 h came out at 6.8 µM.

Take `C[C@@H]1CC[C@@]2(OC1)O[C@H]1C[C@H]3[C@@H]4CC=C5C[C@@H](O[C@@H]6O[C@H](CO)[C@@H](O[C@H]7O[C@H](C)[C@@H](OCCNC(=O)OCC8c9ccccc9-c9ccccc98)[C@H](O)[C@@H]7O)[C@H](O)[C@H]6O[C@H]6O[C@H](C)[C@@H](O)[C@H](O)[C@@H]6O)CC[C@]5(C)[C@H]4CC[C@]3(C)[C@H]1[C@@H]2C`: the HC50 at 1 h came to 3 µM.

Consider `CCCC(=O)O[C@H]1[C@H](O)[C@H](O)[C@@H](O[C@H]2[C@H](O)[C@@H](O[C@H]3O[C@H](C)[C@@H](O)[C@H](O)[C@@H]3O)[C@H](O[C@H]3CC[C@@]4(C)C(=CC[C@H]5[C@@H]6C[C@@H]7O[C@]8(CC[C@@H](C)CO8)[C@@H](C)[C@@H]7[C@@]6(C)CC[C@@H]54)C3)O[C@@H]2CO)O[C@@H]1C`, for which the HC50 at 1 h was determined as 2.8 µM.

Consider `C=CCCCCCCCCC(=O)NC[C@H]1O[C@@H](O[C@H]2CC[C@@]3(C)C(=CC[C@H]4[C@@H]5C[C@@H]6O[C@]7(CC[C@@H](C)CO7)[C@@H](C)[C@@H]6[C@@]5(C)CC[C@@H]43)C2)[C@H](O[C@H]2O[C@H](C)[C@@H](O)[C@H](O)[C@@H]2O)[C@@H](O)[C@@H]1O[C@H]1O[C@H](C)[C@@H](O)[C@H](O)[C@@H]1O`, for which the HC50 at 1 h is above 50 µg/mL.

As to `C[C@@H]1CC[C@@]2(OC1)O[C@H]1C[C@H]3[C@@H]4CC=C5C[C@@H](O[C@@H]6O[C@H](CO)[C@@H](O[C@H]7O[C@H](C)[C@@H](OCCNC(=O)COc8ccccc8)[C@H](O)[C@@H]7O)[C@H](O)[C@H]6O[C@H]6O[C@H](C)[C@@H](O)[C@H](O)[C@@H]6O)CC[C@]5(C)[C@H]4CC[C@]3(C)[C@H]1[C@@H]2C`, the HC50 at 1 h stood at 7.6 µM.

As for `C[C@@H]1CC[C@@]2(OC1)O[C@H]1C[C@H]3[C@@H]4CC=C5C[C@@H](O[C@@H]6O[C@H](CO)[C@@H](O[C@H]7O[C@H](C)[C@@H](OCCNC(=O)c8ccc([N+](=O)[O-])cc8)[C@H](O)[C@@H]7O)[C@H](O)[C@H]6O[C@H]6O[C@H](C)[C@@H](O)[C@H](O)[C@@H]6O)CC[C@]5(C)[C@H]4CC[C@]3(C)[C@H]1[C@@H]2C`, the HC50 at 1 h worked out at 4.9 µM.

`CC(=O)NCCO[C@H]1[C@H](O)[C@H](O)[C@@H](O[C@H]2[C@H](O)[C@@H](O[C@H]3O[C@H](C)[C@@H](O)[C@H](O)[C@@H]3O)[C@H](O[C@H]3CC[C@@]4(C)C(=CC[C@H]5[C@@H]6C[C@@H]7O[C@]8(CC[C@@H](C)CO8)[C@@H](C)[C@@H]7[C@@]6(C)CC[C@@H]54)C3)O[C@@H]2CO)O[C@@H]1C`: the HC50 at 1 h amounted to 9.2 µM.

On to `C/C=C/C=C/C(=O)NC[C@H]1O[C@@H](O[C@H]2CC[C@@]3(C)C(=CC[C@H]4[C@@H]5C[C@@H]6O[C@]7(CC[C@@H](C)CO7)[C@@H](C)[C@@H]6[C@@]5(C)CC[C@@H]43)C2)[C@H](O[C@H]2O[C@H](C)[C@@H](O)[C@H](O)[C@@H]2O)[C@@H](O)[C@@H]1O[C@H]1O[C@H](C)[C@@H](O)[C@H](O)[C@@H]1O`, for which the HC50 at 1 h was 9.3 µM.

For `C[C@@H]1CC[C@@]2(OC1)O[C@H]1C[C@H]3[C@@H]4CC=C5C[C@@H](O[C@@H]6O[C@H](CO)[C@@H](O[C@@H]7O[C@@H](C)[C@H](O)[C@@H](O)[C@H]7O)[C@H](O)[C@H]6O)CC[C@]5(C)[C@H]4CC[C@]3(C)[C@H]1[C@@H]2C`, the HC50 at 1 h turned out to be 27.3 µM.

Take `C[C@@H]1CC[C@@]2(OC1)O[C@H]1C[C@H]3[C@@H]4CC=C5C[C@@H](O[C@@H]6O[C@H](CO)[C@@H](O[C@H]7O[C@H](C)[C@@H](OCCN=[N+]=[N-])[C@H](O)[C@@H]7O)[C@H](O)[C@H]6O[C@H]6O[C@H](C)[C@@H](O)[C@H](O)[C@@H]6O)CC[C@]5(C)[C@H]4CC[C@]3(C)[C@H]1[C@@H]2C`: the HC50 at 1 h is 9.7 µM.

Turning to `C[C@@H]1CC[C@@]2(OC1)O[C@H]1C[C@H]3[C@@H]4CC=C5C[C@@H](O[C@@H]6O[C@H](CN=[N+]=[N-])[C@@H](O[C@H]7O[C@H](C)[C@@H](O)[C@H](O)[C@@H]7O)[C@H](O)[C@H]6O[C@H]6O[C@H](C)[C@@H](O)[C@H](O)[C@@H]6O)CC[C@]5(C)[C@H]4CC[C@]3(C)[C@H]1[C@@H]2C`, the HC50 at 1 h is above 50 µg/mL.

For `C[C@@H]1CC[C@@]2(OC1)O[C@H]1C[C@H]3[C@@H]4CC=C5C[C@@H](O[C@@H]6O[C@H](CNC(=O)C(F)(F)F)[C@@H](O[C@H]7O[C@H](C)[C@@H](O)[C@H](O)[C@@H]7O)[C@H](O)[C@H]6O[C@H]6O[C@H](C)[C@@H](O)[C@H](O)[C@@H]6O)CC[C@]5(C)[C@H]4CC[C@]3(C)[C@H]1[C@@H]2C`, the HC50 at 1 h is 18.5 µM.

Regarding `C[C@@H]1CC[C@@]2(OC1)O[C@H]1C[C@H]3[C@@H]4CC=C5C[C@@H](O[C@@H]6O[C@H](CO)[C@@H](O[C@H]7O[C@H](C)[C@@H](OCCNC(=O)/C=C/c8ccccc8)[C@H](O)[C@@H]7O)[C@H](O)[C@H]6O[C@H]6O[C@H](C)[C@@H](O)[C@H](O)[C@@H]6O)CC[C@]5(C)[C@H]4CC[C@]3(C)[C@H]1[C@@H]2C`, the HC50 at 1 h stood at 1.5 µM.

Turning to `C[C@@H]1CC[C@@]2(OC1)O[C@H]1C[C@H]3[C@@H]4CC=C5C[C@@H](O[C@@H]6O[C@H](CNC(=O)CCCCl)[C@@H](O[C@H]7O[C@H](C)[C@@H](O)[C@H](O)[C@@H]7O)[C@H](O)[C@H]6O[C@H]6O[C@H](C)[C@@H](O)[C@H](O)[C@@H]6O)CC[C@]5(C)[C@H]4CC[C@]3(C)[C@H]1[C@@H]2C`, the HC50 at 1 h stood at 20.9 µM.

As to `COc1ccc(C(=O)NC[C@H]2O[C@@H](O[C@H]3CC[C@@]4(C)C(=CC[C@H]5[C@@H]6C[C@@H]7O[C@]8(CC[C@@H](C)CO8)[C@@H](C)[C@@H]7[C@@]6(C)CC[C@@H]54)C3)[C@H](O[C@H]3O[C@H](C)[C@@H](O)[C@H](O)[C@@H]3O)[C@@H](O)[C@@H]2O[C@H]2O[C@H](C)[C@@H](O)[C@H](O)[C@@H]2O)cc1`, the HC50 at 1 h was 9.5 µM.
